Key:
astrocytes = assay: Astrocyte activation, GFAP immunohistology; format: in vivo, C57Bl/6 mice; settings: for Astrocytes, normalized IOD: GFAP, normalized to non-infected mice
Experimental: (§1) Sections were thaw-mounted onto on poly-L-lysine-coated slides and stored at -80°C until use.
(§2) Slides were thawed by sequential incubation at −20°C and 5°C (10 minutes at each temperature) and incubated in blocking solution consisting of 20% of 5% BSA and 80% of 5% NGS, in a moist environment at room temperature (RT). After one hour the blocking solution was removed and sections incubated overnight at 5°C with primary antibody diluted 1∶200 in blocking solution. Microglia were stained using rabbit anti-mouse ionized calcium binding adaptor molecule 1 (IBA-1) (Wako Chemicals, Richmond, VA, USA); astrocytes were stained using rabbit anti-bovine glial fibrillary acidic protein (GFAP) (cross-reactive to mouse; LifeSpan Biosciences, Seattle, WA, USA). After washing in PBS, slides were incubated for one hour at RT with secondary antibody, Cy3-AffiniPure donkey anti-rabbit IgG H+L (diluted 1∶200 in PBS; Jackson Immunoresearch Laboratories, West Grove, PA, USA), followed by an additional wash. After addition of 4′,6-diamidino-2-phenylindole (DAPI) in mounting solution (Dapi-Fluoromount-G, Southern Biotech, Birmingham, AL, USA) the slides were mounted with coverslips and examined by fluorescent microscopy. At least three sections per brain (6 fields each) were examined, and the total number of astrocytes and microglia counted. High-resolution images of stained slides were photographed using a laser confocal scanning microscope. Images were visualized and analyzed with ImagePro analysis software: quantification of relative fluorescence was performed using the integrated optical density (IOD) parameter. IOD values of infected non-treated or treated mice were normalized to non-infected mouse values.

microglia = assay: Microglial activation, IBA-1 immunohistology; format: in vivo, C57Bl/6 mice; settings: IBA-1, normalized to non-infected mice
Experimental: as §1
as §2, with “After addition of 4′,6-diamidino-2-phenylindole (DAPI) in mounting solution (Dapi-Fluoromount-G, Southern Biotech, Birmingham, AL, USA) the slides were mounted with coverslips and examined by fluorescent microscopy.” left out, “High-resolution images of stained slides were photographed using a laser confocal scanning microscope.” left out, “IOD values of infected non-treated or treated mice were normalized to non-infected mouse values.” left out

[1] = other disease models; ref [5]; cited from earlier work
[2] = system: inflammation-related genes (CCL5, CXCL9, CXCL10, ICAM-1, IFNγ, IL-4); assay: Brain expression of inflammation-related genes by qPCR; format: in vivo, C57Bl/6 mice; settings: day 9 p.i., treatment days 3, 5, 7, 9 p.i., relative to non-infected mice, normalized to HPRT
Experimental: For total RNA extraction, samples were homogenized in Tri-reagent (Sigma) and the homogenate separated into aqueous and organic phases by chloroform addition and centrifugation. RNA was precipitated from the aqueous phase by addition of isopropanol, washed with ethanol, and solubilized in UPW.
cDNA synthesis was performed using a High Capacity cDNA Reverse Transcription kit (Applied Biosystems, Warrington, UK). cDNA was amplified from 1 µg RNA from each sample with the addition of 2 µl Multiscribe™ reverse transcriptase (RT), 2 µl RNAse inhibitor, 4 µl random primers, 4 µl RT buffer, and 1.6 µl dNTP's according to the manufacturer's instructions for first-strand cDNA synthesis. UPW was added for a final sample volume of 20 µl. cDNA samples were stored at −20°C.
Real-time transcription-polymerase chain reaction (rtPCR) was carried out using Applied Biosystems' 9800 Fast Thermal Cycler. The reaction mix for rtPCR analysis consisted of 1 µl cDNA, 300 nM forward (f) and reverse (r) primers (Syntezza, Jerusalem, Israel), and 7.5 µl manufactured master mix buffer containing nucleotides, Taq polymerase, and SYBR Green (Applied Biosystems) in a total volume of 15 µl. Gene amplification included one stage of 10 min at 95°C followed by 40 cycles of a two-step loop: 20 s at 95°C, and 1 min at 60°C. The fold-change in gene expression was normalized to the endogenous gene hypoxanthine phosphoribosyltransferase (HPRT). […] Results were considered significant if the observed fold-change was at least ×2 relative to non-infected mice. Primer sequences (5′-3′) were as follows: CCL5: […] (f), […] (r); ICAM-1: […] (f); […] (r); IFN-γ: […] (f), […] (r); IL-4: […] (f), […] (r); CXCL9: […] (f), […] (r); CXCL10: […] (f), […] (f), […] (r).

[3] = system: Plasmodium berghei ANKA (PbAus); assay: Late-stage treatment of ECM followed by artemisone, PbAus-infected C57Bl/6 mice
Experimental: Plasmodium berghei ANKA (PbA; PbA MRA-311, CDC, Atlanta, GA, USA) was maintained in vivo by serial transfer of parasitized erythrocytes (PE) from infected to naïve mice. Experiments were also performed using a second strain of PbA, similarly maintained, and designated PbAus in the text (courtesy of Prof. G. Grau, University of Sydney, Australia).
Parasitemia was monitored by thin blood smears prepared from tail blood. These were stained with a 25% Giemsa solution, examined under a light microscope, and parasitemia determined as the percent of infected red blood cells per 10,000 erythrocytes. Disease severity was determined according to scoring of neurological symptoms and changes in weight and temperature, as previously described […] Parasitemias above 20% and the absence of neurological symptoms indicated severe anemic malaria.
For early ECM treatment, injections were given on days 3, 5, 7, and 9 p.i; for late treatment, treatment was given every other day, starting on day 5 p.i. for a total of at least two injections. Infected, non-treated control mice were injected with 5% dextrose or empty nSSL. Clinical signs and parasitemias were monitored and disease severity scored as described […] At each time-point, at least 3 mice from each group were chosen at random, deeply anesthetized, and brains were removed following intracardial perfusion (using saline, if organs were destined for real-time (rt)PCR analysis, or saline/formalin, if organs were destined for histopathological analysis). Organs destined for rtPCR analysis were snap-frozen in liquid nitrogen and stored at −80°C until use. Organs destined for immunohistology were immediately immersed in cryoprotectant solution (see below).

[4] = system: PbAus-infected C57Bl/6 mice; assay: Brain hemorrhages, H&E staining; format: in vivo; settings: treatment days 3, 5, 7, 9 p.i.
Experimental: H&E staining was performed by incubation of slides in Sigma's Accustain hematoxylin solution followed by staining in eosin solution (2% eosin, 1% phloxine and 0.5% acetic acid in 95% ethanol), and mounting in Hydromount (National Diagnostics, Cherry Hill, NJ, USA).

C[C@H]1C[C@H]2[C@@H]3CCC4=CC(=O)C=C[C@]4(C)[C@@]3(F)[C@@H](O)C[C@]2(C)[C@@]1(O)C(=O)COC(=O)CCC(=O)O [BMS, β-methasone hemisuccinate]
Astrocytes, normalized IOD (astrocytes; day 5 p.i.): 1.7±0.9
Astrocytes, normalized IOD (astrocytes; day 9 p.i.): 1.1±0.1
Astrocyte number of primary processes (astrocytes; day 9 p.i., n = 23, 18 cells): 10±2
Microglia, normalized IOD (microglia; day 5 p.i.): 12±1
Microglia, normalized IOD (microglia; day 9 p.i.): 10±0.05
Potency of BMS relative to MPS [1]: five
CCL5 relative expression ± SEM [2]: 45.7±7.6
CXCL9 relative expression ± SEM [2]: 39.3±11.1
CXCL10 relative expression ± SEM [2]: 18.2±2.4
ICAM-1 relative expression ± SEM [2]: 3.3±0.7
IFNγ relative expression ± SEM [2]: 105.1±37.7
IL-4 relative expression ± SEM [2]: 1.5±0.3
Mice that died of acute toxicity ([3]; 20 mg/kg on days 5, 7, 9 p.i., upon second or third injection): 6/10
Average clinical score on day 7 p.i. ([3]; 20 mg/kg, treatment started day 5 p.i.): 4.2±2.2
Number of hemorrhages ([4]; day 5 p.i.): 9±1
Number of hemorrhages ([4]; day 9 p.i.): 9±2

From PMC3753236, “Glucocorticosteroids in Nano-Sterically Stabilized Liposomes Are Efficacious for Elimination of the Acute Symptoms of Experimental Cerebral Malaria” (PLoS ONE, 2013)
